{"source": "patent US6051389A", "about": "“Enzyme sensor” (Radiometer Medical A/S, priority 1996, dated 2000)", "tested_on": "lactate oxidase", "assay": "Enzyme Stability Test: oxalate as stabilising agent for lactate oxidase in S4932 rinse solution (Example 5)", "assay_type": "biochemical, Pediococcus", "experimental": "Colorimetric lactate oxidase assay\nThe formation of H2 O2 is determined in a peroxidase (POD) assay system where a quinonimine dye is formed. The amount of formed quinonimine dye is determined spectrophotometically at 490 nm.\n100 μL of Reagent A is added to a well of a microtiterplate (Immunoplate, Nunc, Roskilde, Denmark). The colour reaction is started by adding 100 μL of the Enzyme Solution. Immediately afterwards, the microtiterplate is placed in the plate-holder of a THERMOmax incubator (Molecular Devices, Menlo Park, Calif., USA) pre-set to: 37° C., kinetic mode, lag-time 5 min., reading time 15 min., and automix.\nThe enzymatic activity of lactate oxidase (and also other enzymes) is decreasing exponentially. Therefore, the half-life period (t1/2) for the enzymatic activity will be independent of the initial concentration, and, thus, t1/2 is an excellent expression for the stability of an enzyme under various conditions.\nThe enzymatic activity is determined (as described in the Enzyme Activity Test above) for the enzyme composition in question at least four times over a relevant period, e.g. every day for at least four days (day 0 to day 3). t1/2 is then calculated following standard mathematical methods.\nA solution of 0.04 U/mL lactate oxidase in S4932 rinse solution (Radiometer Medical A/S, Copenhagen, Denmark) was prepared. Disodium oxalate corresponding to a total concentration of 1, 2, 4, 8, and 16 mM of oxalate was added. The enzymatic activity of the solutions was determined five times over a period of 13 days. The enzymatic stability of these solutions was compared with the enzymatic stability of a solution without oxalate.", "note": "Where a name gives a salt, the structure may show the parent alone.", "data": [{"smiles": "O=C(O)C(=O)O", "note": "[Oxalate, disodium oxalate]", "values": [{"measurement": "Enzymatic Activity", "setting": "oxalate 1 mM, time 0 h, 0.04 U/mL lactate oxidase", "result": 13.76, "unit": "mOD/min."}, {"measurement": "Enzymatic Activity", "setting": "oxalate 1 mM, time 68.5 h", "result": 11.47, "unit": "mOD/min."}, {"measurement": "Enzymatic Activity", "setting": "oxalate 1 mM, time 148 h", "result": 11.01, "unit": "mOD/min."}, {"measurement": "Enzymatic Activity", "setting": "oxalate 1 mM, time 199 h", "result": 9.89, "unit": "mOD/min."}, {"measurement": "Enzymatic Activity", "setting": "oxalate 1 mM, time 319 h", "result": 8.67, "unit": "mOD/min."}, {"measurement": "Enzymatic Activity", "setting": "oxalate 2 mM, time 0 h, 0.04 U/mL lactate oxidase", "result": 13.63, "unit": "mOD/min."}, {"measurement": "Enzymatic Activity", "setting": "oxalate 2 mM, time 68.5 h", "result": 12.08, "unit": "mOD/min."}, {"measurement": "Enzymatic Activity", "setting": "oxalate 2 mM, time 148 h", "result": 11.07, "unit": "mOD/min."}, {"measurement": "Enzymatic Activity", "setting": "oxalate 2 mM, time 199 h", "result": 9.92, "unit": "mOD/min."}, {"measurement": "Enzymatic Activity", "setting": "oxalate 2 mM, time 319 h", "result": 8.63, "unit": "mOD/min."}, {"measurement": "Enzymatic Activity", "setting": "oxalate 4 mM, time 0 h, 0.04 U/mL lactate oxidase", "result": 12.87, "unit": "mOD/min."}, {"measurement": "Enzymatic Activity", "setting": "oxalate 4 mM, time 68.5 h", "result": 11.90, "unit": "mOD/min."}, {"measurement": "Enzymatic Activity", "setting": "oxalate 4 mM, time 148 h", "result": 11.36, "unit": "mOD/min."}, {"measurement": "Enzymatic Activity", "setting": "oxalate 4 mM, time 199 h", "result": 10.36, "unit": "mOD/min."}, {"measurement": "Enzymatic Activity", "setting": "oxalate 4 mM, time 319 h", "result": 9.60, "unit": "mOD/min."}, {"measurement": "Enzymatic Activity", "setting": "oxalate 8 mM, time 0 h, 0.04 U/mL lactate oxidase", "result": 11.86, "unit": "mOD/min."}, {"measurement": "Enzymatic Activity", "setting": "oxalate 8 mM, time 68.5 h", "result": 11.34, "unit": "mOD/min."}, {"measurement": "Enzymatic Activity", "setting": "oxalate 8 mM, time 148 h", "result": 10.86, "unit": "mOD/min."}, {"measurement": "Enzymatic Activity", "setting": "oxalate 8 mM, time 199 h", "result": 9.84, "unit": "mOD/min."}, {"measurement": "Enzymatic Activity", "setting": "oxalate 8 mM, time 319 h", "result": 9.33, "unit": "mOD/min."}, {"measurement": "Enzymatic Activity", "setting": "oxalate 16 mM, time 0 h, 0.04 U/mL lactate oxidase", "result": 10.37, "unit": "mOD/min."}, {"measurement": "Enzymatic Activity", "setting": "oxalate 16 mM, time 68.5 h", "result": 10.15, "unit": "mOD/min."}, {"measurement": "Enzymatic Activity", "setting": "oxalate 16 mM, time 148 h", "result": 9.72, "unit": "mOD/min."}, {"measurement": "Enzymatic Activity", "setting": "oxalate 16 mM, time 199 h", "result": 8.81, "unit": "mOD/min."}, {"measurement": "Enzymatic Activity", "setting": "oxalate 16 mM, time 319 h", "result": 8.65, "unit": "mOD/min."}]}]}
